Data published in ChEMBL document CHEMBL1833884, “Discovery of a brain-penetrant S1P₃-sparing direct agonist of the S1P₁ and S1P₅ receptors efficacious at low oral dose” (J Med Chem, 2011).
Active and inactive are the calls of the source. No cut-off for these calls is given here.

Experiments:
[1] = Dissociation constant, pKa of the compound; type: physicochemical
[2] = target: T1, Sphingosine 1-phosphate receptor 1 (Homo sapiens, UniProt P21453); assay: Agonist activity at human S1P1 receptor expressed in CHO-K1 EDG1 cells expressing beta-arrestin 2 after 105 mins by chemi-luminescence assay; type: functional, cell-based
[3] = Half life in CD rat at 1 mg/kg, iv; type: ADME, organism-based; design: dose 1 mg/kg, route intravenous; conditions: in vivo
[4] = Blood clearance in CD rat at 1 mg/kg, iv; type: ADME, organism-based; design: dose 1 mg/kg, route intravenous
[5] = Chromatographic hydrophobicity index, log D of the compound at pH 10.5; type: physicochemical; conditions: buffer
[6] = Volume of distribution at steady state in CD rat at 1 mg/kg, iv; type: ADME, organism-based; design: dose 1 mg/kg, route intravenous; conditions: in vivo, read-out: Vdss
[7] = Chromatographic hydrophobicity index, log D of the compound at pH 7.4; type: physicochemical; conditions: buffer
[8] = target: T2, Sphingosine 1-phosphate receptor 3 (Homo sapiens, UniProt Q99500); assay: Agonist activity at human S1P3 receptor expressed in RBL cells assessed as [35S]GTPgammaS binding after 3 hrs by radiometric assay; type: functional, cell-based
[9] = Chromatographic hydrophobicity index, log D of the compound at pH 2.0; type: physicochemical; conditions: buffer
[10] = target: Voltage-gated inwardly rectifying potassium channel KCNH2 (Homo sapiens, UniProt Q12809)
[11] = tested on: Plasma; assay: Fraction unbound in CD rat plasma; type: ADME, cell-free
[12] = Oral bioavailability in CD rat at 3 mg/kg; type: ADME, organism-based; conditions: in vivo
[13] = Plasma protein binding in CD rat at 1 mg/kg, iv; type: ADME, organism-based; design: dose 1 mg/kg, route intravenous; conditions: read-out: PPB
[14] = target: T1, Sphingosine 1-phosphate receptor 1; assay: Agonist activity at human S1P1 receptor expressed in CHO-K1 EDG1 cells expressing beta-arrestin 2 after 105 mins by chemi-luminescence assay relative to control; type: functional, cell-based
[15] = target: T3, Sphingosine 1-phosphate receptor 4 (Homo sapiens) (UniProt O95977); assay: Agonist activity at human S1P4 expressed in CHO-K1 aequorin cells assessed as calcium accumulation of by luminescence assay in presence of cofactor coelenterazine relative to control; type: functional, cell-based
T3 sequence (whole entry): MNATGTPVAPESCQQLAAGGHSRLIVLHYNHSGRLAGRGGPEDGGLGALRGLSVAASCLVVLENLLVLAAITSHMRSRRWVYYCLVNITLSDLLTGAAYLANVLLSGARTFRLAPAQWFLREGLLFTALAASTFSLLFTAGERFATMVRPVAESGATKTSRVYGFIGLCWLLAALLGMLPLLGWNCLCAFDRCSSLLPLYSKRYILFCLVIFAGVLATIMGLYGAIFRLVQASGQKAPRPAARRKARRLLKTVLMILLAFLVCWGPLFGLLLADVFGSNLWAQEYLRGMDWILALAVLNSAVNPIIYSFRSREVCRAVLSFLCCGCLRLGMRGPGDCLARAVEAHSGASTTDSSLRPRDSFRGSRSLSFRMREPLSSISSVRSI

[16] = target: T4, Sphingosine 1-phosphate receptor 5 (Homo sapiens, UniProt Q9H228); assay: Agonist activity at human S1P5 receptor expressed in CHO-K1 aequorin cells assessed as calcium accumulation of by luminescence assay in presence of cofactor coelenterazine relative to control; type: functional, cell-based
[17] = target: T2, Sphingosine 1-phosphate receptor 3; assay: Agonist activity at human S1P3 receptor expressed in RBL cells assessed as [35S]GTPgammaS binding after 3 hrs by radiometric assay relative to control; type: functional, cell-based
[18] = target: T5, Sphingosine 1-phosphate receptor 4 (Homo sapiens, UniProt O95977); assay: Agonist activity at human S1P4 expressed in CHO-K1 aequorin cells assessed as calcium accumulation of by luminescence assay in presence of cofactor coelenterazine; type: functional, cell-based
T5 sequence (O95977 whole entry): T3 sequence (whole entry)

[19] = tested on: Rattus norvegicus; assay: Lymphopenic activity in Lewis rat assessed as reduction in blood lymphocyte counts at 1 mg/kg, po; type: functional; design: scale not given: the % may be the effect or the level left
[20] = target: T6, Sphingosine 1-phosphate receptor 2 (Homo sapiens, UniProt O95136); assay: Agonist activity at human S1P2 receptor expressed in yeast MMY24 assessed as conversion of FDGlu to fluorescein after 24 hrs relative to control; type: functional
[21] = tested on: MDR1 (P-glycoprotein), human; assay: Efflux ratio of permeability in dog MDCK2 cells expressing human MDR1; type: ADME, cell-based, Canis lupus familiaris, MDCK-II; conditions: MDCK-MDR1
[22] = target: T4, Sphingosine 1-phosphate receptor 5; assay: Agonist activity at human S1P5 receptor expressed in CHO-K1 aequorin cells assessed as calcium accumulation of by luminescence assay in presence of cofactor coelenterazine; type: functional, cell-based
[23] = target: T6, Sphingosine 1-phosphate receptor 2; assay: Agonist activity at human S1P2 receptor expressed in yeast MMY24 assessed as conversion of FDGlu to fluorescein after 24 hrs; type: functional
[24] = target: hERG (KCNH2) (Homo sapiens, UniProt Q12809); assay: Inhibition of human ERG at 30 uM
[25] = tested on: Rattus norvegicus; assay: Metabolic stability of the compound in Lewis rat at 1 mg/kg, po; type: ADME, organism-based; design: dose 1 mg/kg, route oral; conditions: in vivo
[26] = tested on: Hepatocyte; assay: Intrinsic clearance in human hepatocytes; type: ADME, cell-based, Liver
[27] = target: T7, Cytochrome P450 3A4 (Homo sapiens, UniProt P08684); assay: Inhibition of CYP3A4 using vivid green as substrate; type: ADME
[28] = Ratio of drug level in brain to blood in CD rat at 0.8 mg/kg/hr, iv measured up to 7 hrs; type: ADME, organism-based; design: route intravenous
[29] = Blood clearance in Beagle dog at 1 mg/kg, iv; type: ADME, organism-based, Canis lupus familiaris; design: dose 1 mg/kg, route intravenous
[30] = tested on: Rattus norvegicus; assay: Lymphopenic activity in Lewis rat assessed as reduction in blood lymphocyte counts at 0.3 mg/kg, po; type: functional, organism-based; design: dose 0.3 mg/kg
[31] = tested on: Hepatocyte; assay: Intrinsic clearance in rat hepatocytes; type: ADME, cell-based, Liver
[32] = target: Cytochrome P450 2C19 (Homo sapiens, UniProt P33261); assay: Inhibition of CYP2C19; type: ADME
[33] = Intrinsic clearance in dog hepatocytes; type: ADME, cell-based, Canis lupus familiaris, Liver, Hepatocyte
[34] = target: Cytochrome P450 2C9 (Homo sapiens, UniProt P11712); assay: Inhibition of CYP2C9; type: ADME
[35] = Half life in Beagle dog at 1 mg/kg, iv; type: ADME, organism-based, Canis lupus familiaris; design: dose 1 mg/kg, route intravenous; conditions: in vivo
[36] = Oral bioavailability in Beagle dog at 1 mg/kg; type: ADME, organism-based, Canis lupus familiaris; conditions: in vivo
[37] = target: Cytochrome P450 2D6 (Homo sapiens, UniProt P10635); assay: Inhibition of CYP2D6; type: ADME
[38] = Intrinsic clearance in cynomolgus monkey hepatocytes; type: ADME, cell-based, Macaca fascicularis, Liver, Hepatocyte
[39] = Volume of distribution at steady state in Beagle dog at 1 mg/kg, iv; type: ADME, organism-based, Canis lupus familiaris; design: dose 1 mg/kg, route intravenous; conditions: in vivo, read-out: Vdss
[40] = Solubility of the compound in fed state simulated intestinal fluid; type: physicochemical; conditions: simulated gi fluid
[41] = Oral bioavailability in CD rat at 1 mg/kg; type: ADME, organism-based; conditions: in vivo
[42] = target: T7, Cytochrome P450 3A4; assay: Inhibition of CYP3A4 using vivid red as substrate; type: ADME
[43] = tested on: Hepatocyte; assay: Intrinsic clearance in mouse hepatocytes; type: ADME, cell-based, Liver
[44] = Bioavailability in CD rat at 1 mg/kg, […]; type: ADME, organism-based; conditions: in vivo

T4 sequence (Q9H228 whole entry): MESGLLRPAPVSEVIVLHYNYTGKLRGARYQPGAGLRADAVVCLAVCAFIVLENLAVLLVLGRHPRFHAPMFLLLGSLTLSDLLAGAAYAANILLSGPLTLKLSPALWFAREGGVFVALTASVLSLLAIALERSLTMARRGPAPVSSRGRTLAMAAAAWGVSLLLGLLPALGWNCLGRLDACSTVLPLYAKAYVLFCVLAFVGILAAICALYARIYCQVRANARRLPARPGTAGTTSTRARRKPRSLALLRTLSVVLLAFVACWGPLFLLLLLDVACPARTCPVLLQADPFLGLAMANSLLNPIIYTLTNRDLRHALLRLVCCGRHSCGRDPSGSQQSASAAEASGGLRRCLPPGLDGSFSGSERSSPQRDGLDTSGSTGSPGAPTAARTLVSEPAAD
T1 sequence (P21453 whole entry): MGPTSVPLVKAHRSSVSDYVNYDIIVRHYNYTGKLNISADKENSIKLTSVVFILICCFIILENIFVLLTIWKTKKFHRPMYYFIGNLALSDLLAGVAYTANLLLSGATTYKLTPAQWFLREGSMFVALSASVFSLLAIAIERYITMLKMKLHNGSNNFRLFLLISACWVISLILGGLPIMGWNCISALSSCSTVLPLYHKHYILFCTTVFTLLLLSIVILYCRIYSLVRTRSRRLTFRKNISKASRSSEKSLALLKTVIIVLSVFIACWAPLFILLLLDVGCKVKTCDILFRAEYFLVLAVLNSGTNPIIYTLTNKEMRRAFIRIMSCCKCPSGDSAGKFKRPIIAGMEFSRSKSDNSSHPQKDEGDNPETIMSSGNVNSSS
Sequence of Voltage-gated inwardly rectifying potassium channel KCNH2 (Q12809 whole entry): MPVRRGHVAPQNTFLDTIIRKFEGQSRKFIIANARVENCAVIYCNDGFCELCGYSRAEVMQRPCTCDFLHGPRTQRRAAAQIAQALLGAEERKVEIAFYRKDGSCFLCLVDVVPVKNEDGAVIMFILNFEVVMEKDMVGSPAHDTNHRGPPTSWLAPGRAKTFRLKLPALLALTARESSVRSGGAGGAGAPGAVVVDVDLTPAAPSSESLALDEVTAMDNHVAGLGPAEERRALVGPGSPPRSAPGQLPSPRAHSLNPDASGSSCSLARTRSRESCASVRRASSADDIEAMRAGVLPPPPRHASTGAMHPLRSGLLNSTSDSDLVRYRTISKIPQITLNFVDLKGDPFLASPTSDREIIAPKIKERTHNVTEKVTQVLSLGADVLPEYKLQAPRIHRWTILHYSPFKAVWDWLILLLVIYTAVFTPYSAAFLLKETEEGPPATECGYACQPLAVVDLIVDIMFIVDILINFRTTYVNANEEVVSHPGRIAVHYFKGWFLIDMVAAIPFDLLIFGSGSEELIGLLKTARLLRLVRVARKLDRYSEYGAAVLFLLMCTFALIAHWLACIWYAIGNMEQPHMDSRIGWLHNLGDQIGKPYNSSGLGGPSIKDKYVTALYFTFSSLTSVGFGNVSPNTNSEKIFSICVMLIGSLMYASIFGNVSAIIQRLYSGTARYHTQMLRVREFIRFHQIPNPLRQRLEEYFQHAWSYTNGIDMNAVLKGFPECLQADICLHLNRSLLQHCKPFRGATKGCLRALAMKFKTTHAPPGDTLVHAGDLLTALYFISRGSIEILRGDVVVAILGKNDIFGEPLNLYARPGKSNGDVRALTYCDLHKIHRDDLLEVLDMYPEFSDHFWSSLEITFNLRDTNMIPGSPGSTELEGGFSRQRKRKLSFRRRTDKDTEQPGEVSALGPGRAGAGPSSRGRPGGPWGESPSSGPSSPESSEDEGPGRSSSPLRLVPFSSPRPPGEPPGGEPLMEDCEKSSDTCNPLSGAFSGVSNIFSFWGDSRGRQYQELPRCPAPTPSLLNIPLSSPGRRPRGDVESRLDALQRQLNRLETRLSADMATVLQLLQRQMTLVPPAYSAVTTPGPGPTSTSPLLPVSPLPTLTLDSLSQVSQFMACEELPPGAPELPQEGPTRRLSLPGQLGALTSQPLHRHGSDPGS
Sequence of hERG (KCNH2) (Q12809 whole entry): as above
T2 sequence (Q99500 whole entry): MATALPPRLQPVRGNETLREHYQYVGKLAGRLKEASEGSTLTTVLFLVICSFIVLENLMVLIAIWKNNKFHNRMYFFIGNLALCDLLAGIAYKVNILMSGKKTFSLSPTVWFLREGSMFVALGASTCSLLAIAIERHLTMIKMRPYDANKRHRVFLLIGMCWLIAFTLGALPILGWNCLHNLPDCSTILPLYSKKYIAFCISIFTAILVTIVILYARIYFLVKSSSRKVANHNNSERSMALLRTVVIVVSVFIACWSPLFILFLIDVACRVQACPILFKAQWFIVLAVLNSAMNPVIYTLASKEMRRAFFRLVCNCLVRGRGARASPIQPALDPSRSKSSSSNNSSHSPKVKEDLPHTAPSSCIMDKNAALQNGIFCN
T7 sequence (P08684 whole entry): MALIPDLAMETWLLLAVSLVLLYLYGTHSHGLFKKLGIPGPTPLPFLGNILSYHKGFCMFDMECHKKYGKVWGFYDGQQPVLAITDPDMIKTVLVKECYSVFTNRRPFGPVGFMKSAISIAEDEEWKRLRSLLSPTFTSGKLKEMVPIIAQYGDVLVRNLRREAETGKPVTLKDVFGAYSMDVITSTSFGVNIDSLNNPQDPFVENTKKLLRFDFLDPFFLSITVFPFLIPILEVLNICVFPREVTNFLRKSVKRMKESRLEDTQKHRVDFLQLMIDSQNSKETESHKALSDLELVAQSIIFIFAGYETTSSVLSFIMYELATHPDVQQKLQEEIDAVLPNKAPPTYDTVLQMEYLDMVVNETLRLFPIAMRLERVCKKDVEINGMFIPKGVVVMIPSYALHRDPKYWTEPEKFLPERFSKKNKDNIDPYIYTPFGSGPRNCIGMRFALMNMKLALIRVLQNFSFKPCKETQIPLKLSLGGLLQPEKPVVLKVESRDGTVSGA
T6 sequence (O95136 whole entry): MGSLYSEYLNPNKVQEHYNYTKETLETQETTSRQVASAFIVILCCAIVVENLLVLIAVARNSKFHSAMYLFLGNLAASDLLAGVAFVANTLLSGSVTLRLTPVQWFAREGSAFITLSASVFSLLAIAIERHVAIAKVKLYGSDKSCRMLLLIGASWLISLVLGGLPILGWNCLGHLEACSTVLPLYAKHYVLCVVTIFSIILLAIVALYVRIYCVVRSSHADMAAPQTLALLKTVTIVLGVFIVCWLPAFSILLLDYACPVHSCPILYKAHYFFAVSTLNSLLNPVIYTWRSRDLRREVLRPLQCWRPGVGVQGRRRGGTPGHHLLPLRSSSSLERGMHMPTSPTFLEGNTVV
Sequence of Cytochrome P450 2C19 (P33261 whole entry): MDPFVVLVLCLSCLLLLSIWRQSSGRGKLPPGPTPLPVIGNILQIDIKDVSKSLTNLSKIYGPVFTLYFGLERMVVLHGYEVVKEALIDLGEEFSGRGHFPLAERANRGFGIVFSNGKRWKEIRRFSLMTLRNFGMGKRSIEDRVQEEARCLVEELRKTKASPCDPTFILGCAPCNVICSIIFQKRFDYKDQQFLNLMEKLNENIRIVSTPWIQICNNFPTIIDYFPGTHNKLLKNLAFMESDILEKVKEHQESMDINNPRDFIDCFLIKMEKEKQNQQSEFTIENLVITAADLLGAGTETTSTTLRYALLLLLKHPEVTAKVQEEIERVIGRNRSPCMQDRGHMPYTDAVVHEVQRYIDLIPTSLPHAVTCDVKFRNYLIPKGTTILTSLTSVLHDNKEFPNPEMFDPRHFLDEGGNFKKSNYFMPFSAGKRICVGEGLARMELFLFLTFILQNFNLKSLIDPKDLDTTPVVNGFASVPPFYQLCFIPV

CC(C)Oc1ncc(-c2nc(-c3ccc4c(c3)CCNCC4)no2)cc1C#N
pKa [1]: 9.69
EC50 [2]: 0.02 µM
half-life [3]: 6.3 h
clearance [4]: 20 mL/min/kg
chromatographic logD [5]: 3.73
Vd [6]: 9.7 L/kg
chromatographic logD [7]: 2.65
EC50 [8]: > 31.6 µM
chromatographic logD [9]: 1.34
IC50 [10]: 3.16 µM
Fu [11]: 0.25%
bioavailability [12]: 70%
fraction unbound [13]: < 0.05

CCCCCCCCc1ccc(CC[C@](N)(CO)COP(=O)(O)O)cc1 [FTY720-P]
Emax [14]: 99%
Emax [15]: 48%
Emax [16]: 7.2%
Emax [17]: 62%
EC50 [18]: 0.2 µM

CC(C)Oc1ccc(-c2nc(-c3ccc4c(c3)CCN(C(CO)CO)C4)no2)cc1C#N
pKa [1]: 7.28
EC50 [2]: 0.00794 µM
half-life [3]: 0.6 h
clearance [4]: 87 mL/min/kg
Vd [6]: 3.7 L/kg
chromatographic logD [7]: 2.49
Activity [19]: 49%
EC50 [8]: 6.31 µM
IC50 [10]: 20 µM

Cc1c(-c2noc(-c3ccc(OC(C)C)c(C#N)c3)n2)cnc2c1CCN(C(CO)CO)C2
pKa [1]: 6.22
EC50 [2]: 0.02 µM
half-life [3]: 2.1 h
clearance [4]: 21 mL/min/kg
Vd [6]: 3.3 L/kg
chromatographic logD [7]: 2
Activity [19]: 70%
EC50 [8]: > 100 µM
IC50 [10]: 12.6 µM
bioavailability [12]: 37%

Cc1c(-c2noc(-c3ccc(OC(C)C)c(C#N)c3)n2)ccc2c1CCN(CCC(=O)O)C2
Emax [20]: 1%
Emax [14]: 94%
EC50 [2]: 0.00562 µM
Emax [15]: 3%
efflux ratio [21]: 6
EC50 [8]: > 31.6 µM
Emax [16]: 77%
Emax [17]: 35%
EC50 [22]: 0.162 µM
EC50 [18]: > 41.7 µM
EC50 [23]: > 33.1 µM

Cc1c(-c2noc(-c3ccc(OC(C)C)c(C#N)c3)n2)ccc2c1CCN(CC(=O)N[C@@H](C)CO)C2
pKa [1]: 6.07
EC50 [2]: 0.00126 µM
half-life [3]: 2 h
clearance [4]: 32 mL/min/kg
Vd [6]: 4.4 L/kg
inhibition at 30 µM [24]: 43%
chromatographic logD [7]: 3.04
Activity [19]: 90%
Stability [25]: Unstable
EC50 [8]: 25.1 µM
IC50 [10]: > 10 µM
bioavailability [12]: 38%

CC(C)Oc1ccc(-c2nc(-c3cccc4c3OCCN(C(CO)CO)C4)no2)cc1C#N
pKa [1]: 6.03
EC50 [2]: 0.02 µM
half-life [3]: 3.5 h
clearance [4]: 14 mL/min/kg
Vd [6]: 3.3 L/kg
chromatographic logD [7]: 2.41
Activity [19]: 60%
EC50 [8]: > 31.6 µM

Cc1c(-c2noc(-c3ccc(OC(C)C)c(C#N)c3)n2)ccc2c1CCN(C(CO)CO)C2
pKa [1]: 7.3
CL [26]: 2 mL/min/g
IC50 [27]: 8.4 µM
EC50 [2]: 0.00316 µM
Kp at 7 h [28]: 1.87
clearance [29]: 29 mL/min/kg
half-life [3]: 1 h
clearance [4]: 60 mL/min/kg
chromatographic logD [5]: 2.99
Vd [6]: 4.1 L/kg
inhibition at 30 µM [24]: 58%
Activity [30]: Active
chromatographic logD [7]: 2.64
Activity [19]: 96%
CL [31]: 3 mL/min/g
EC50 [8]: > 31.6 µM
IC50 [32]: > 50 µM
CL [33]: 30 mL/min/g
IC50 [34]: 4.3 µM
chromatographic logD [9]: 0.98
half-life [35]: 3 h
bioavailability [36]: 45%
IC50 [37]: > 50 µM
IC50 [10]: 12.9 µM
CL [38]: 1.3 mL/min/g
Vd [39]: 7 L/kg
solubility [40]: > 1 µg/mL
bioavailability [12]: 52%
bioavailability [41]: 52%
EC50 [22]: 0.02 µM
IC50 [42]: 15.3 µM
CL [43]: 1.3 mL/min/g

CC(C)Oc1ccc(-c2nc(-c3ccc4c(c3)CCN(C(CO)CO)CC4)no2)cc1C#N
pKa [1]: 7.81
EC50 [2]: 0.02 µM
half-life [3]: 5.3 h
clearance [4]: 21 mL/min/kg
Vd [6]: 7.6 L/kg
inhibition at 30 µM [24]: 59%
chromatographic logD [7]: 2.74
Activity [19]: 88%
EC50 [8]: 15.8 µM
IC50 [10]: 17.8 µM
bioavailability [44]: 68%
